Key:
Axl [1] = target: T1, Axl (Homo sapiens (Human), UniProt P30530); experiment: Axl binding assay
Method: Binding of the tracer to the kinase is detected using an EU-labeled anti-tag antibody. […] Binding of an inhibitor to the kinase competes for binding with the tracer, resulting in a loss of FRET-signal. At first a compound according to formula (I) was diluted in 20 mM Hepes pH 8.0, 1 mM DTT, 10 mM MgCl2 and 0.01% Brij35.

Axl [2] = target: T1, Axl; experiment: Cellular Axl phosphorylation assay; format: cell-based; settings: HEK293 cells transfected with Axl cDNA, 1 hour incubation
Method in brief: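 Transiently Axl-transfected HEK293 cells, with a vector-only negative control, were treated with compound for 1 hour on the day after medium change. Axl phosphorylation was quantified by mesoscale detection.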

T1 sequence (P30530 26-894): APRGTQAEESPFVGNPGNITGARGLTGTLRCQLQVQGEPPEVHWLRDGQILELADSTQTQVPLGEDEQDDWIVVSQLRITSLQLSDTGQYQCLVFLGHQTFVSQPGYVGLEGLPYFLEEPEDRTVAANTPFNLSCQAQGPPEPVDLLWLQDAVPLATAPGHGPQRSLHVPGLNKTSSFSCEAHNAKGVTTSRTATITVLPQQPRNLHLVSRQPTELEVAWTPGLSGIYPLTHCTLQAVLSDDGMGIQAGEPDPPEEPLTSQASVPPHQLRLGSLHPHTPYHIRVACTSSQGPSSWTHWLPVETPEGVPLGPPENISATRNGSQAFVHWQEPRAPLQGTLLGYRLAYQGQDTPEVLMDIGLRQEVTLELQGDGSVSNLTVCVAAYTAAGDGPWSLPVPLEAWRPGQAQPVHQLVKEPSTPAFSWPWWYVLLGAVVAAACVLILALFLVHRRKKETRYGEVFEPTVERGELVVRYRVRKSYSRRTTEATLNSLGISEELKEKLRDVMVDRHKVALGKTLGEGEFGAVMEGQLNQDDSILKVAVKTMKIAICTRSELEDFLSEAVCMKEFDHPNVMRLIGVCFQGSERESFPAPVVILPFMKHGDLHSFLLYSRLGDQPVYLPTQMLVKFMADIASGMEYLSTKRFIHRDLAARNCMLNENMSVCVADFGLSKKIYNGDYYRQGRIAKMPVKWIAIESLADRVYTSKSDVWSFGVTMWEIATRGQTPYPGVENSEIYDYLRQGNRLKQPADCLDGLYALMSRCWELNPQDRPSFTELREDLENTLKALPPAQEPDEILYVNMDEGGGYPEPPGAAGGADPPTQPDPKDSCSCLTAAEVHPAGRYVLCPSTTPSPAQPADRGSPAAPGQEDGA

Row | SMILES | IC50 (Axl [1]) [nM] | IC50 (Axl [2]) [nM]
1 | COc1cc2c(Oc3ccc(NC(=O)c4nn(-c5ccc(F)cc5)cc4OCC4CC4)cc3F)ccnc2cc1OCCCN1CCOCC1 [Example 46, 4-(cyclopropylmethoxy)-N-[3-fluoro-4-[[6-methoxy-7-(3-morpholinopropoxy)-4-quinolyl]oxy]phenyl]-1-(4-fluorophenyl)pyrazole-3-carboxamide] | < 500 | < 500
2 | COc1cc2nccc(Oc3ccc(NC(=O)c4cc(C)n(C(C)(C)C)n4)cc3F)c2cc1OC [Example 5, 1-tert-butyl-N-[4-[(6,7-dimethoxy-4-quinolyl)oxy]-3-fluoro-phenyl]-5-methyl-pyrazole-3-carboxamide] | < 500 | < 500
3 | CCOc1cn(-c2ccc(F)cc2C)nc1C(=O)Nc1ccc(Oc2ccnc3cc(OC)c(OC)cc23)cc1 [Example 27, N-[4-[(6,7-dimethoxy-4-quinolyl)oxy]phenyl]-4-ethoxy-1-(4-fluoro-2-methyl-phenyl)pyrazole-3-carboxamide] | < 500 | < 500
4 | COc1cc2nccc(Oc3ccc(NC(=O)c4nn(-c5ccc(F)cc5)cc4OCC4CC4)cc3Cl)c2cc1OC [Example 34, N-[3-chloro-4-[(6,7-dimethoxy-4-quinolyl)oxy]phenyl]-4-(cyclopropylmethoxy)-1-(4-fluorophenyl)pyrazole-3-carboxamide] | < 500 | < 500
5 | COc1cc2c(Oc3ccc(NC(=O)c4ccn(C)n4)cc3F)ccnc2cc1OCCCN1CCOCC1 [Example 40, N-[3-fluoro-4-[[6-methoxy-7-(3-morpholinopropoxy)-4-quinolyl]oxy]phenyl]-1-methyl-pyrazole-3-carboxamide] | 500 to 5000 | < 500
6 | CCOc1cn(-c2ccc(F)cc2C)nc1C(=O)Nc1ccc(Oc2ccnc3cc(OCCCN4CCOCC4)c(OC)cc23)c(F)c1 [Example 43, 4-ethoxy-N-[3-fluoro-4-[[6-methoxy-7-(3-morpholinopropoxy)-4-quinolyl]oxy]phenyl]-1-(4-fluoro-2-methyl-phenyl)pyrazole-3-carboxamide] | < 500 | < 500

Next, values leading:

Row | IC50 (Axl [1]) [nM] | IC50 (Axl [2]) [nM] | SMILES
7 | < 500 | < 500 | COc1cc2c(Oc3ccc(NC(=O)c4nn(-c5ccc(F)cc5)cc4OCCN(C)C)cc3F)ccnc2cc1OCCCN1CCOCC1 [Example 48, 4-(2-dimethylaminoethoxy)-N-[3-fluoro-4-[[6-methoxy-7-(3-morpholinopropoxy)-4-quinolyl]oxy]phenyl]-1-(4-fluorophenyl)pyrazole-3-carboxamide]
8 | < 500 | < 500 | CCOc1cn(-c2ccc(F)cc2C)nc1C(=O)Nc1ccc(Oc2ccnc3cc(OCC4CCN(CC)CC4)c(OC)cc23)c(F)c1 [Example 82, 4-ethoxy-N-[4-[[7-[(1-ethyl-4-piperidyl)methoxy]-6-methoxy-4-quinolyl]oxy]-3-fluoro-phenyl]-1-(4-fluoro-2-methyl-phenyl)pyrazole-3-carboxamide]
9 | < 500 | < 500 | CCOc1cn(-c2ccc(F)cc2Cl)nc1C(=O)Nc1ccc(Oc2ccnc3cc(OC)c(OC)cc23)cn1 [Example 86, 1-(2-chloro-4-fluoro-phenyl)-N-[5-[(6,7-dimethoxy-4-quinolyl)oxy]-2-pyridyl]-4-ethoxy-pyrazole-3-carboxamide]
10 | < 500 | < 500 | CCOc1cn(-c2cccc([N+](=O)[O-])c2)nc1C(=O)Nc1ccc(Oc2ccnc3cc(OC)c(OC)cc23)cn1 [Example 92, N-(5-((6,7-dimethoxyquinolin-4-yl)oxy)pyridin-2-yl)-4-ethoxy-1-(3-nitrophenyl)-1H-pyrazole-3-carboxamide]
11 | < 500 | < 500 | COc1cc2c(Oc3ccc(NC(=O)c4cc(C)n(C(C)(C)C)n4)cc3F)ccnc2cc1OCC1CCNCC1 [Example 78, 1-tert-butyl-N-[3-fluoro-4-[[6-methoxy-7-(4-piperidylmethoxy)-4-quinolyl]oxy]phenyl]-5-methyl-pyrazole-3-carboxamide]
12 | < 500 | < 500 | CCOc1cn(-c2ccc(F)cc2C)nc1C(=O)Nc1ccc(Oc2ccnc3cc(OCCCN)c(OC)cc23)c(F)c1 [Example 55, N-[4-[[7-(3-aminopropoxy)-6-methoxy-4-quinolyl]oxy]-3-fluoro-phenyl]-4-ethoxy-1-(4-fluoro-2-methyl-phenyl)pyrazole-3-carboxamide]
